Source: patent US9073895B2 (Boehringer Ingelheim International GmbH, priority 2010, dated 2015)
pIC50: −log10 of the molar value.

How the values were obtained:
[1] = molecular target: T1, recombinant human FLAP protein (Homo sapiens, UniProt P20292); assay: FLAP binding assay (SPA, displacement of [125I]L-691,831); settings: membranes of sf9 cells expressing human FLAP, [125I]L-691,831 probe; read-out: hFLAP binding IC50
T1 construct: made in house; host or cells: Sf9 insect cells (membrane fraction, 100,000 x g pellet)
T1 sequence (P20292 1-161): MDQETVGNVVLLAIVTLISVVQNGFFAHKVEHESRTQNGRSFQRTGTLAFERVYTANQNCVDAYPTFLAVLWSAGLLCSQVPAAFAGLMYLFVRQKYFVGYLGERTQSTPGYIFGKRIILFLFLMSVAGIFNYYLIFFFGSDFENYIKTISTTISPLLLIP
How it was run: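 Membranes from sf9 cells expressing human FLAP (5 μg/well) were bound to WGA SPA beads (200 μg/well). Nonspecific binding was defined with 10 μM unlabelled L-691,831.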

[2] = test system: synthesis of LTB4 in human whole blood; assay: Human whole blood LTB4 production inhibition assay; type: cell-based; settings: heparinized human whole blood, calcimycin 20 μM, plasma LTB4; read-out: HuWB IC50
Protocol: Compounds are additionally tested in a human whole blood assay to determine their ability to inhibit the synthesis of LTB4 in a cellular system. Compounds are combined with heparinized human whole blood and incubated for 15 minutes at 37° C. Calcimycin (20 μM final, prepared in phosphate-buffered saline, pH 7.4) is then added and the mixture is incubated for another 30 minutes at 37° C. The samples are centrifuged for 5 min at low speed (1500×g) and the plasma layer is removed. Plasma LTB4 concentrations are then measured using an antibody-based homogenous time-resolved fluorescence method (CisBio, Bedford, Mass.).

Row | Compound | pIC50 [1] | pIC50 [2]
1 | Nc1ncc(-c2ccc(C3(C(=O)Nc4ccc(-c5ccncc5)cc4)CCOCC3)cc2)cn1 [Example 34, 4-[4-(2-aminopyrimidin-5-yl)phenyl]-N-[4-(pyridin-4-yl)phenyl]tetrahydro-2H-pyran-4-carboxamide] | 7.93 | 6.79
2 | Cc1cc(C)c2ccc(NC(=O)C3(c4ccc(-c5cnc(N)nc5)cc4)CCOCC3)nc2n1 [Example 38, 4-[4-(2-aminopyrimidin-5-yl)phenyl]-N-(5,7-dimethyl-1,8-naphthyridin-2-yl)tetrahydro-2H-pyran-4-carboxamide] | 7.23 | < 5.52
3 | N#Cc1ccc(NC(=O)C2(c3ccc(-c4cnc(N)nc4)cc3)CCOCC2)cc1C(F)(F)F [Example 40, 4-[4-(2-aminopyrimidin-5-yl)phenyl]-N-[4-cyano-3-(trifluoromethyl)phenyl] tetrahydro-2H-pyran-4-carboxamide] | 7.54 | 5.91
4 | Nc1ncc(-c2ccc(C3(C(=O)Nc4ccc(C(F)(F)F)cc4)CCOCC3)cc2)cn1 [Example 41, 4-[4-(2-aminopyrimidin-5-yl)phenyl]-N-[4-(trifluoromethyl)phenyl] tetrahydro-2H-pyran-4-carboxamide] | 6.92 | < 5.52
5 | CCOC(=O)c1sc2ccc(NC(=O)C3(c4ccc(-c5cnc(N)nc5)cc4)CCOCC3)cc2c1C [Example 43, ethyl 5-[({4-[4-(2-aminopyrimidin-5-yl)phenyl]tetrahydro-2H-pyran-4-yl}carbonyl)amino]-3-methyl-1-benzothiophene-2-carboxylate] | 7.91 | < 5.52
6 | Nc1ncc(-c2ccc(C3(C(=O)Nc4ccc(-c5cccnc5)cc4)CCOCC3)cc2)cn1 [Example 45, 4-[4-(2-aminopyrimidin-5-yl)phenyl]-N-[4-(pyridin-3-yl)phenyl]tetrahydro-2H-pyran-4-carboxamide] | 8.21 | 6.34
7 | Cc1cc(NC(=O)C2(c3ccc(-c4cnc(N)nc4)cc3)CCOCC2)cc(C(F)(F)F)c1 [Example 46, 4-[4-(2-aminopyrimidin-5-yl)phenyl]-N-[3-methyl-5-(trifluoromethyl)phenyl] tetrahydro-2H-pyran-4-carboxamide] | 6.74 | < 5.52
8 | CC(C)(C)c1cc(NC(=O)C2(c3ccc(-c4cnc(N)nc4)cc3)CCOCC2)ccn1 [Example 47, 4-[4-(2-aminopyrimidin-5-yl)phenyl]-N-(2-tert-butylpyridin-4-yl)tetrahydro-2H-pyran-4-carboxamide] | 7.19 | 5.49
9 | Nc1ncc(-c2ccc(C3(C(=O)Nc4ccc(OCc5ccccc5)c(Cl)c4)CCOCC3)cc2)cn1 [Example 49, 4-[4-(2-aminopyrimidin-5-yl)phenyl]-N-[4-(benzyloxy)-3-chlorophenyl]tetrahydro-2H-pyran-4-carboxamide] | 7.57 | 6.27
10 | Nc1ncc(-c2ccc(C3(C(=O)Nc4ccc5cnccc5c4)CCOCC3)cc2)cn1 [Example 51, 4-[4-(2-aminopyrimidin-5-yl)phenyl]-N-(isoquinolin-6-yl)tetrahydro-2H-pyran-4-carboxamide] | 7.74 | 5.77
11 | Nc1ncc(-c2ccc(C3(C(=O)Nc4nc5ccccc5s4)CCOCC3)cc2)cn1 [Example 55, 4-[4-(2-aminopyrimidin-5-yl)phenyl]-N-(1,3-benzothiazol-2-yl)tetrahydro-2H-pyran-4-carboxamide] | 7.54 | < 5.52
12 | Nc1ncc(-c2ccc(C3(C(=O)Nc4nc(-c5ccncc5)cs4)CCOCC3)cc2)cn1 [Example 60, 4-[4-(2-aminopyrimidin-5-yl)phenyl]-N-[4-(pyridin-4-yl)-1,3-thiazol-2-yl]tetrahydro-2H-pyran-4-carboxamide] | 8.46 | 6.51
13 | Nc1ncc(-c2ccc(C3(C(=O)Nc4cccc(OCc5ccccc5)c4)CCOCC3)cc2)cn1 [Example 61, 4-[4-(2-aminopyrimidin-5-yl)phenyl]-N-[3-(benzyloxy)phenyl]tetrahydro-2H-pyran-4-carboxamide] | 7.03 | < 5.52
14 | Cc1ccc(NC(=O)C2(c3ccc(-c4cnc(N)nc4)cc3)CCOCC2)cc1C#N [Example 62, 4-[4-(2-aminopyrimidin-5-yl)phenyl]-N-(3-cyano-4-methylphenyl)tetrahydro-2H-pyran-4-carboxamide] | 7.47 | < 5.52
15 | Nc1ncc(-c2ccc(C3(C(=O)Nc4ccc(S(=O)(=O)N5CCOCC5)cc4)CCOCC3)cc2)cn1 [Example 64, 4-[4-(2-aminopyrimidin-5-yl)phenyl]-N-[4-(morpholin-4-ylsulfonyl)phenyl]tetrahydro-2H-pyran-4-carboxamide] | 7.32 | 6.07
16 | Nc1ncc(-c2ccc(C3(C(=O)Nc4ccc(-c5ccccc5)nc4)CCOCC3)cc2)cn1 [Example 67, 4-[4-(2-aminopyrimidin-5-yl)phenyl]-N-(6-phenylpyridin-3-yl)tetrahydro-2H-pyran-4-carboxamide] | 7.84 | 5.92

Continued by rising pIC50 [1], values first:

Row | pIC50 [1] | pIC50 [2] | Compound
17 | 6.77 | < 5.52 | Nc1ncc(-c2ccc(C3(C(=O)Nc4cc(-c5ccncc5)no4)CCOCC3)cc2)cn1 [Example 58, 4-[4-(2-aminopyrimidin-5-yl)phenyl]-N-[3-(pyridin-4-yl)-1,2-oxazol-5-yl]tetrahydro-2H-pyran-4-carboxamide]
18 | 7.08 | 5.79 | Nc1ncc(-c2ccc(C3(C(=O)Nc4ccc(C(F)(F)F)nc4)CCOCC3)cc2)cn1 [Example 48, 4-[4-(2-aminopyrimidin-5-yl)phenyl]-N-[6-(trifluoromethyl)pyridin-3-yl]tetrahydro-2H-pyran-4-carboxamide]
19 | 7.20 | 5.74 | Cc1nc(NC(=O)C2(c3ccc(-c4cnc(N)nc4)cc3)CCOCC2)ccc1C#N [Example 52, 4-[4-(2-aminopyrimidin-5-yl)phenyl]-N-(5-cyano-6-methylpyridin-2-yl)tetrahydro-2H-pyran-4-carboxamide]
20 | 7.26 | 5.72 | Nc1ncc(-c2ccc(C3(C(=O)Nc4ccc(OC(F)(F)F)cc4)CCOCC3)cc2)cn1 [Example 39, 4-[4-(2-aminopyrimidin-5-yl)phenyl]-N-[4-(trifluoromethoxy)phenyl] tetrahydro-2H-pyran-4-carboxamide]
21 | 7.33 | 5.95 | N#Cc1ccc(NC(=O)C2(c3ccc(-c4cnc(N)nc4)cc3)CCOCC2)nc1 [Example 32, 4-[4-(2-aminopyrimidin-5-yl)phenyl]-N-(5-cyanopyridin-2-yl)tetrahydro-2H-pyran-4-carboxamide]
22 | 7.35 | 5.95 | Nc1ncc(-c2ccc(C3(C(=O)Nc4ccc(Cc5ccccc5)cc4)CCOCC3)cc2)cn1 [Example 54, 4-[4-(2-aminopyrimidin-5-yl)phenyl]-N-(4-benzylphenyl)tetrahydro-2H-pyran-4-carboxamide]
23 | 7.37 | < 5.52 | Nc1ncc(-c2ccc(C3(C(=O)Nc4cccc(-c5ccncc5)c4)CCOCC3)cc2)cn1 [Example 33, 4-[4-(2-aminopyrimidin-5-yl)phenyl]-N-[3-(pyridin-4-yl)phenyl]tetrahydro-2H-pyran-4-carboxamide]
24 | 7.46 | < 5.52 | Nc1ncc(-c2ccc(C3(C(=O)Nc4cc(-c5ccccc5)no4)CCOCC3)cc2)cn1 [Example 37, 4-[4-(2-aminopyrimidin-5-yl)phenyl]-N-(3-phenyl-1,2-oxazol-5-yl)tetrahydro-2H-pyran-4-carboxamide]
25 | 7.52 | 6.09 | Nc1ncc(-c2ccc(C3(C(=O)Nc4ccc(Oc5ccc(Cl)cc5)cc4)CCOCC3)cc2)cn1 [Example 63, 4-[4-(2-aminopyrimidin-5-yl)phenyl]-N-[4-(4-chlorophenoxy)phenyl]tetrahydro-2H-pyran-4-carboxamide]
26 | 7.74 | 5.65 | COC(=O)c1sc(-c2ccccc2)cc1NC(=O)C1(c2ccc(-c3cnc(N)nc3)cc2)CCOCC1 [Example 30, methyl 3-[({4-[4-(2-aminopyrimidin-5-yl)phenyl]tetrahydro-2H-pyran-4-yl}carbonyl)amino]-5-phenylthiophene-2-carboxylate]
27 | 7.85 | 6.04 | Nc1ncc(-c2ccc(C3(C(=O)Nc4cnc(-c5ccccc5)nc4)CCOCC3)cc2)cn1 [Example 65, 4-[4-(2-aminopyrimidin-5-yl)phenyl]-N-(2-phenylpyrimidin-5-yl)tetrahydro-2H-pyran-4-carboxamide]
28 | 7.88 | < 5.52 | Nc1ncc(-c2ccc(C3(C(=O)Nc4nc(-c5ccccc5)ns4)CCOCC3)cc2)cn1 [Example 36, 4-[4-(2-aminopyrimidin-5-yl)phenyl]-N-(3-phenyl-1,2,4-thiadiazol-5-yl)tetrahydro-2H-pyran-4-carboxamide]
29 | 7.90 | < 5.52 | Nc1ncc(-c2ccc(C3(C(=O)Nc4nc(-c5ccccn5)cs4)CCOCC3)cc2)cn1 [Example 59, 4-[4-(2-aminopyrimidin-5-yl)phenyl]-N-[4-(pyridin-2-yl)-1,3-thiazol-2-yl]tetrahydro-2H-pyran-4-carboxamide]
30 | 7.92 | 5.75 | Nc1ncc(-c2ccc(C3(C(=O)Nc4ccc(Cl)c(F)c4)CCOCC3)cc2)cn1 [Example 66, 4-[4-(2-aminopyrimidin-5-yl)phenyl]-N-(4-chloro-3-fluorophenyl)tetrahydro-2H-pyran-4-carboxamide]
